# Molecular target: NLRP3 (Homo sapiens, UniProt Q96P20)
# Experiment: THP-1 cell-based NLRP3 activation assay
# Design: endogenous in cells; host or cells: THP-1 cells (PMA-differentiated, LPS-primed, nigericin-stimulated)
# Conditions: PMA-differentiated THP-1 cells, LPS 100 ng/mL then 10 μM nigericin
# Method: THP-1 cells are cultured in complete media (CM) until they reach logarithmic growth and achieve a viability >90%. CM is composed of RPMI-1640 (+Glutamax)/10% fetal bovine serum/55 μM β-mercaptoethanol/pen/strep. Cells are spun down and resuspended to 1,000,000 cells/mL in CM containing either 20 nM or 500 nM PMA. 150,000 cells (150 μL) are then added to each well of a 96-well TC plate and incubated for either 24 hr or 3 hr, respectively, in a standard cell culture incubator (37° C.; 5% CO2). After this incubation, the plate is tilted and media carefully removed. 200 μL of CM containing 100 ng/mL LPS is then added to the wells and the cells incubated an additional 3 hrs. The media is again removed and replaced with Opti-Mem medium containing pre-determined dilutions of test compounds in replicate wells. After a 30 min incubation, 10 μM nigericin (final concentration) in Opti-Mem medium with the corresponding concentration of compound is added to the wells for an additional 1 hr. Positive control wells contain 10 μM nigericin in Opti-Mem in the absence of test compound, while negative control wells contain Opti-Mem only. […] Once supernatants are removed, the relative viability of adherent cells in the 96-well TC plate are determined using a CellTiter-Glo® luminescent cell viability assay (Promega).
# Sequence of NLRP3 (Q96P20 whole entry): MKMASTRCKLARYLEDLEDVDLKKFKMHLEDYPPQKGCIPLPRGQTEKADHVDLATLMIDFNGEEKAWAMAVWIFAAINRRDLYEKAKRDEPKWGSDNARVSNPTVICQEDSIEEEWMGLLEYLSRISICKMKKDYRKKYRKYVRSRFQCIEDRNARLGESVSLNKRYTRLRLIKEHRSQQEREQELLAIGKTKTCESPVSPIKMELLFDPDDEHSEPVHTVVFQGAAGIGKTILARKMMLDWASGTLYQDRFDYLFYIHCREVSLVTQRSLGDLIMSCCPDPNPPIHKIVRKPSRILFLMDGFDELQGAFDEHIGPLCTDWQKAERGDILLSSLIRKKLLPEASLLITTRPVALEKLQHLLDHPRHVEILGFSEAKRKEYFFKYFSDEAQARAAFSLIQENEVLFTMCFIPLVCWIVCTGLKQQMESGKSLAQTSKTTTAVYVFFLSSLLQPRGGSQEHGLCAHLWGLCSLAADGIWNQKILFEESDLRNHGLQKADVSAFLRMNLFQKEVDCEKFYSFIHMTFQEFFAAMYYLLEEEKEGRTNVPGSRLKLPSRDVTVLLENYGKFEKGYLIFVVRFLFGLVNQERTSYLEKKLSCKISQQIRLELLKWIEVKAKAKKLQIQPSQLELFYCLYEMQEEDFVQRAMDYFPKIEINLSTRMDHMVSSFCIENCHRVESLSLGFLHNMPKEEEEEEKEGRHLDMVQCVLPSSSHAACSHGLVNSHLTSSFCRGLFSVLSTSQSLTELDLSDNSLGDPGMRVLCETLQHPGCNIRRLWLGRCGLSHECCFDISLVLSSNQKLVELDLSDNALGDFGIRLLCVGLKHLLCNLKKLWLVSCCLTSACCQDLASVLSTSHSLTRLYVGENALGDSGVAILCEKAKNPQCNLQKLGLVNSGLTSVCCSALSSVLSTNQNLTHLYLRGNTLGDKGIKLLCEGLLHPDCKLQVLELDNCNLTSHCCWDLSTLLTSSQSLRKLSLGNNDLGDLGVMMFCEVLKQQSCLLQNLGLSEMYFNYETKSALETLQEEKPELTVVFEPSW
row,Compound,IC50 [nM]
1,CCOc1cc(CN(CCN(CC)CC)Cc2cncc3cn[nH]c23)ccc1-c1cccc(F)c1 [Compound 120],< 100
2,CCOc1cc(C(=O)N(C)[C@H](CN(C)C)c2cncc3cn[nH]c23)ccc1-c1cccc(F)c1 [Compound 121],< 100
3,CCOc1cc(C(=O)N(C)[C@@H](CN(C)C)c2cncc3cn[nH]c23)ccc1-c1cccc(F)c1 [Compound 122],500 to 1000
4,CCOc1cc(C(=O)N(C)[C@H](CN2CCC2)c2cncc3cn[nH]c23)ccc1-c1cccc(F)c1 [Compound 123],500 to 1000
5,CCOc1cc(C(=O)N(C)[C@H](CN(C)C)c2cncc3cn[nH]c23)ccc1-c1cccc(Cl)c1 [Compound 125],< 100
6,CCOc1cc(C(=O)N(C)[C@@H](CN(C)C)c2cncc3cn[nH]c23)ccc1-c1cccc(Cl)c1 [Compound 126],< 100
7,CCOc1cc(C(=O)N(C)[C@H](CN(CC)CC)c2cncc3cn[nH]c23)ccc1-c1cccc(F)c1 [Compound 127],< 100
8,CCOc1cc(C(=O)N(C)[C@@H](CN(CC)CC)c2cncc3cn[nH]c23)ccc1-c1cccc(F)c1 [Compound 128],< 100
9,CCOc1cc(C(=O)N(C)[C@H](CN2CCCC2)c2cncc3cn[nH]c23)ccc1-c1cccc(F)c1 [Compound 129],500 to 1000
10,CCOc1cc(C(=O)N(C)[C@@H](CN2CCCC2)c2cncc3cn[nH]c23)ccc1-c1cccc(F)c1 [Compound 130],< 100
11,CCOc1cc(C(=O)N(C)[C@H](c2cncc3cn[nH]c23)C2CN(CC)C2)ccc1-c1cccc(Cl)c1 [Compound 131],< 100
12,CCOc1cc(C(=O)N(C)[C@H](c2cncc3cn[nH]c23)C2CN(C(C)C)C2)ccc1-c1ccccc1 [Compound 132],1000 to 15000
13,CCOc1cc(C(=O)N(C)[C@H](c2cncc3cn[nH]c23)C2CN(C)C2)ccc1-c1ccccc1 [Compound 133],< 100
14,CCOc1cc(C(=O)N(C)[C@H](c2cncc3cn[nH]c23)C2CN(CC)C2)ccc1-c1ccccc1 [Compound 134],1000 to 15000
15,CCOc1cc(C(=O)N(C)C(CCN(C)C)c2cccc3cn[nH]c23)ccc1-c1ccccc1 (stereo not drawn) [Compound 135],< 100
16,CCOc1cc(C(=O)N(C)[C@H](CCNCCF)c2cncc3cn[nH]c23)ccc1-c1ccccc1 [Compound 136],< 100
17,CCOc1cc(C(=O)N(C)[C@H](CCN(C)CCCF)c2cncc3cn[nH]c23)ccc1-c1cccc(F)c1 [Compound 137],< 100
18,CCOc1cc(C(=O)N(C)[C@H](CCN(C)CCCF)c2cncc3cn[nH]c23)ccc1-c1ccccc1 [Compound 138],< 100
19,CCOc1cc(C(=O)N(C)[C@H](CCNCCCF)c2cncc3cn[nH]c23)ccc1-c1cccc(Cl)c1 [Compound 139],< 100
20,CCOc1cc(C(=O)N(C)[C@H](CCN)c2cncc3cn[nH]c23)ccc1-c1ccccc1 [Compound 140],< 100
21,CCOc1cc(C(=O)N(C)[C@@H](c2cncc3cn[nH]c23)C2CNC2)ccc1-c1cccc(C#N)c1 [Compound 141],< 100
22,CCOc1cc(C(=O)N(C)[C@H](c2cncc3cn[nH]c23)C2CNC2)ccc1-c1cccc(C#N)c1 [Compound 142],1000 to 15000
23,CCOc1cc(C(=O)N(C)[C@@H](c2cncc3cn[nH]c23)C2CN(C)C2)ccc1-c1cccc(C#N)c1 [Compound 143],< 100
24,CCOc1cc(C(=O)N(C)[C@H](c2cncc3cn[nH]c23)C2CN(C)C2)ccc1-c1cccc(C#N)c1 [Compound 144],< 100
25,CCOc1cc(C(=O)N(C)[C@H](CC[N+](C)(C)[O-])c2cncc3cn[nH]c23)ccc1-c1cccc(F)c1 [Compound 145],1000 to 15000
26,CCOc1cc(C(=O)N(C)[C@H](CCN(C)C)c2cncc3cn[nH]c23)ccc1C1CC1 [Compound 146],100 to 500

row,Compound,IC50 [nM]
1,CCOc1cc(C(=O)N(C)[C@H](CCNC(=O)CC)c2cncc3cn[nH]c23)ccc1-c1cccc(F)c1 [Compound 147],< 100
2,CCOc1cc(C(=O)N(C)[C@H](c2cncc3cn[nH]c23)C2CN(C)C2)ccc1-c1cccc(Cl)c1 [Compound 148],< 100
3,CN(C)CC[C@H](c1cncc2cn[nH]c12)N(C)C(=O)c1ccc(-c2cccc(C#N)c2)c(OC2CC2)c1 [Compound 149],< 100
4,CCOc1cc(C(=O)N(C)[C@@H](c2cncc3cn[nH]c23)C2CNC2)ccc1-c1ccccc1 [Compound 150],1000 to 15000
5,CCOc1cc(C(=O)N(C)[C@H](c2cncc3cn[nH]c23)C2CNC2)ccc1-c1ccccc1 [Compound 151],< 100
6,CCOc1cc(C(=O)N(C)[C@@H](c2cncc3cn[nH]c23)[C@H]2CCNC2)ccc1-c1ccccc1 [Compound 152],500 to 1000
7,CCOc1cc(C(=O)N(C)[C@@H](c2cncc3cn[nH]c23)[C@H]2CCN(C)C2)ccc1-c1ccccc1 [Compound 153],< 100
8,CCOc1cc(C(=O)N(C)[C@H](c2cncc3cn[nH]c23)[C@@H]2CCNC2)ccc1-c1ccccc1 [Compound 154],< 100
9,CCOc1cc(C(=O)N(C)[C@H](CCN(C)CCF)c2cncc3cn[nH]c23)ccc1-c1ccccc1 [Compound 155],< 100
10,CCOc1cc(C(=O)N(C)[C@H](CCN(C)C)c2cncc3cn[nH]c23)ccc1C1CCC1 [Compound 156],< 100
11,CCOc1cc(C(=O)N(C)[C@H](CCN(C)C)c2cncc3cn[nH]c23)ccc1C1CCCC1 [Compound 157],< 100
12,CCOc1cc(C(=O)N(C)[C@H](CCN(C)C)c2cncc3cn[nH]c23)ccc1C(C)C [Compound 158],1000 to 15000
13,CCOc1cc(C(=O)N(C)[C@@H](c2cncc3cn[nH]c23)[C@@H]2CCNC2)ccc1-c1ccccc1 [Compound 159],< 100
14,CCOc1cc(C(=O)N(C)[C@@H](c2cncc3cn[nH]c23)[C@@H]2CCN(C)C2)ccc1-c1ccccc1 [Compound 160],< 100
15,CCOc1cc(C(=O)N(C)[C@H](CCN(C)C)c2cncc3cn[nH]c23)ccc1C(C)CC (stereo partly drawn) [Compound 161],< 100
16,CCOc1cc(C(=O)N(C)[C@@H](CCN(C)C)c2cncc3cn[nH]c23)ccc1-c1cccc(F)c1 [Compound 162],< 100
17,CCOc1cc(C(=O)N(C)[C@H](CC[N+](C)(C)[O-])c2cncc3cn[nH]c23)ccc1-c1cccc(Cl)c1 [Compound 163],< 100
18,CCOc1cc(C(=O)N(C)[C@H](CC[N+](C)(C)[O-])c2cncc3cn[nH]c23)ccc1-c1cccc(C)c1 [Compound 164],< 100
19,CN(C(=O)c1ccc(-c2cccc(F)c2)c(OC2CC2)c1)[C@H](CC[N+](C)(C)[O-])c1cncc2cn[nH]c12 [Compound 165],< 100
20,CCOc1cc(C(=O)N(C)[C@H](CC[N+](C)(C)[O-])c2cncc3cn[nH]c23)ccc1-c1ccccc1 [Compound 166],< 100
21,CCNCC[C@H](c1cncc2cn[nH]c12)N(C)C(=O)c1ccc(-c2cccc(F)c2)c(OCC)c1 [Compound 167],< 100
22,CCOc1cc(C(=O)N(C)[C@@H](c2cncc3cn[nH]c23)C2CNC2)ccc1-c1cccc(C)c1 [Compound 168],< 100
23,CCOc1cc(C(=O)N(C)[C@@H](c2cncc3cn[nH]c23)C2CN(CC)C2)ccc1-c1cccc(C)c1 [Compound 169],< 100
24,CCOc1cc(C(=O)N(C)[C@H](c2cncc3cn[nH]c23)C2CNC2)ccc1-c1cccc(C)c1 [Compound 170],< 100
25,CCOc1cc(C(=O)N(C)[C@H](c2cncc3cn[nH]c23)C2CN(CC)C2)ccc1-c1cccc(C)c1 [Compound 171],< 100

# From US12509459B2, “Inhibitors of NLRP3 inflammasome” (BioAge Labs, Inc., priority 2024, dated 2025)
